Data set [1] can be described thus: Chemical stability in PBS buffer pH 7.4. The format is physicochemical. The settings on record: phosphate-buffered saline, 0.01M PBS pH 7.4, 37° C., read-out: Stability in PBS buffer, pH 7.4 t1/2. On the procedure:
Chemical stability of select compounds was evaluated under physiological pH conditions (0.01M Phosphate-Buffered Saline, pH 7.4) for up to 24 h. Stock solutions of each compound (10 mM) were prepared freshly in DMSO. Each compound was incubated at a final concentration of 10 μM (1% DMSO) in pre-heated buffer (0.01M Phosphate-Buffered Saline (PBS), pH 7.4 at 37° C.). The sample solutions were divided into aliquots in glass vials (pre-heated at 37° C.) for each time point. The samples were maintained at 37° C. in the UPLC/MS Autosampler during the study (no shaking). A reference solution of each compound (final concentration: 10 μM at 1% DMSO) in pre-heated CH3CN (37° C.) was prepared from the stock solutions (10 mM in DMSO). The reference solutions were maintained at 37° C. in the UPLC/MS Autosampler during the study (no shaking). An internal standard (100 nM) was added to the sample and reference solutions. For each time point, the samples were analyzed directly by LC/MS without any further sample preparation. The samples were analyzed (triplicate injection) by monitoring the MS trace by Multiple Reaction Monitoring (MRM). The compound concentration (expressed as %) was calculated by dividing the peak area at each time point by the peak area at t=0 min. The reference solution was analyzed at the beginning (t=0 min.), and at the end of the study (t=24 h). The apparent half-lives (t1/2) of the disappearance of compound were calculated by a one-phase decay equation using a non-linear regression of compound concentration versus time.
The analyses were performed on a Waters ACQUITY UPLC/MS TQD system consisting of a TQD (Triple Quadropole Detector) Mass Spectrometer equipped with an Electrospray Ionization interface and a Photodiode Array Detector. The analyses were run on an ACQUITY UPLC BEH C18 1.7 μm 2.1×50 mm column with a VanGuard BEH C18 1.7 μm pre-column at 40° C. The mobile phase was 0.1% HCOOH in H2O (A) and 0.1% HCOOH in CH3CN (B) using a linear gradient: 0-0.2 min.: 5% B, 0.2-2.2 min.: 5-95% B, 2.2-2.3 min.: 95-5% B, 2.3-3 min.: 5% B with flow rate at 0.5 mL/min. […]

In the next data set the target is Acid Ceramidase (AC) (Rattus norvegicus (Rat), UniProt Q6P7S1). Description: Acid ceramidase inhibition, recombinant rat AC, LC-MS. The settings on record: read-out: r-AC % inhib. @ 10 μM. The format is biochemical. On the procedure:
The PCR (High Fidelity PCR Master, Roche) product was subcloned into a pEF6-[…] vector (Invitrogen) to construct a mammalian expression vector encoding […]-tagged rat AC. HEK293 cells were transfected with pEF6-rAC-[…] using Super-Fect reagent (Qiagen) and screened with G418 (0.3 mg/mL). Cells were suspended in 20 mM Tris HCl (pH 7.5) containing 0.32M sucrose, sonicated and centrifuged at 800×g for 15 minutes at 4° C. The supernatants were centrifuged again at 12,000×g for 30 minutes at 4° C. The pellets were suspended in phosphate-buffered saline (PBS) and subjected to 2 freeze-thaw cycles at -80° C. The suspensions were centrifuged at 105,000×g for 1 hour at 4° C. The supernatants containing recombinant AC were kept at -80° C. until use. Protein concentration was measured using the bicinchoninic acid (BCA) assay (Pierce). […] Reactions were stopped by addition of a mixture of chloroform/methanol (2:1, vol/vol) containing 1 nmol of heptadecanoic acid (HDA; NuChek Prep). […] HDA was eluted on an XDB Eclipse C18 column isocratically at 2.2 mL/min for 1 minute with a solvent mixture of 95% methanol and 5% water, both containing 0.25% acetic acid and 5 mM ammonium acetate. The column temperature was 50° C. Electrospray ionization (ESI) was in the negative mode, capillary voltage as 4 kV, and fragmentor voltage was 100 V. N2 was used as drying gas at a flow rate of 13 L/min and a temperature of 350° C. Nebulizer pressure was set at 60 psi. We monitored [M-H]- in the selected-ion monitoring (SIM) mode using HDA as internal standard. Calibration curves were generated using commercial lauric acid (Nu-Chek Prep; m/z=199).

The target in another data set is r-NAAA (Rattus norvegicus (Rat), UniProt Q5KTC7). As to the kind of experiment: r-NAAA inhibition, rat lung lysosomal NAAA preparation, UPLC/MS. It counts as biochemical. In a few lines:
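Substrate was 50 μM heptadecenoylethanolamide, incubated 30 min at 37 °C after a 30 min compound preincubation at pH 4.5 with 1% Triton-X and 3 mM DTT. The enzyme source was rat lung lysosomal preparation. IC50 came from curve fitting of reduced heptadecenoic acid product, measured by negative-mode UPLC/MS versus vehicle.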

Molecules are shown by their SMILES. pIC50: −log10 of the molar value.

One may read the pIC50 as −log10 of the IC50, conventionally taken in molar units. Read a high pIC50 as a low IC50.

Acid Ceramidase (AC), sequence (Q6P7S1 21-394): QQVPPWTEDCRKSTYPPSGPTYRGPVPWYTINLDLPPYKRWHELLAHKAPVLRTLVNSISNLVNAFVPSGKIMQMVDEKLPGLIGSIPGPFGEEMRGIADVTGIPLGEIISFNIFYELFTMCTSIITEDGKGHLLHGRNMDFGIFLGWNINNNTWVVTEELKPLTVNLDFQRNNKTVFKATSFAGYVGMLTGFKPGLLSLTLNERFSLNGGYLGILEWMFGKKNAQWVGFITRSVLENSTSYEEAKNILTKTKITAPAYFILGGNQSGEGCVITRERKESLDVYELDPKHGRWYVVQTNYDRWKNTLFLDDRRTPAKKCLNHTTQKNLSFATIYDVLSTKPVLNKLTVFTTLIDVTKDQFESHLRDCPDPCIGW
r-NAAA, sequence (Q5KTC7 34-362): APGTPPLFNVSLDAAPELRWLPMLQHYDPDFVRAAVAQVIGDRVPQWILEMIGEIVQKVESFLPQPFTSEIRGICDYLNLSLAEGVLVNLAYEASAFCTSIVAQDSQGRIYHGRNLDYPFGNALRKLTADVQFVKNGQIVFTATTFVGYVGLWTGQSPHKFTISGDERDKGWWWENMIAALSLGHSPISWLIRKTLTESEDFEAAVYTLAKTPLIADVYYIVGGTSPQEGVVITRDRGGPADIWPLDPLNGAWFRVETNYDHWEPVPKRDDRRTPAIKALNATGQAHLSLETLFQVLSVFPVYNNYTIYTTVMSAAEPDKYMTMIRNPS

Regarding `C[C@@H]1OC(=O)[C@@H]1NC(=O)CCCCCCc1ccccc1` [corresponding amide analog, reference compound], the half-life at 10 μM in data set [1] was 1.05 h. For the same compound, the inhibition at 10 µM at Acid Ceramidase (AC) is below 10%. On r-NAAA, this compound gave a pIC50 of 6.27.

Source of the values: patent publication US9353075B2, “Disubstituted beta-lactones as inhibitors of N-acylethanolamine acid amidase (NAAA)” (The Regents of the University of California, priority 2011, dated 2016).
